Measurements reported in US10221163B2 (priority 2015, dated 2019).
Read-outs that look alike come from different tables or passages of the source.

Assays:
IMP-1 = IMP-1 (Serratia marcescens, UniProt P52699); assay: biochemical; type: biochemical; conditions: fluorescence assay, CCF2-FA substrate, 2 pM enzyme, 2 hours at 25° C.; read-out: IMP-1 IC50
Summary of the method: (§1)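 IC50 values derive from 4-parameter fits of percent inhibition against inhibitor concentration on semi-log axes. Activity was monitored by fluorescence with the CCF2-FA substrate after a 2-hour, 25° C incubation of compound, enzyme and substrate.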

NDM-1 = NDM-1 (Klebsiella pneumoniae, UniProt C7C422); assay: biochemical; type: biochemical; conditions: fluorescence assay, CCF2-FA substrate, 1 pM enzyme, 2 hours at 25° C.; read-out: NDM-1 IC50
NDM-1, sequence (C7C422 whole entry, looked up, species assumed): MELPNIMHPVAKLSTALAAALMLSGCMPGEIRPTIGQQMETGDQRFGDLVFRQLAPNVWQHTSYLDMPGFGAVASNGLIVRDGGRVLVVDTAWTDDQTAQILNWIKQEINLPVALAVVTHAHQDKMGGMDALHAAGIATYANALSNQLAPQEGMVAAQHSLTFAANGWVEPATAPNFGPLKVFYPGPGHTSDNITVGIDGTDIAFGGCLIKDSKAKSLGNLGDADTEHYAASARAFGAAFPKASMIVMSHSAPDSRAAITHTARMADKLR
Summary of the method: as §1

VIM-1 = VIM-1 (Pseudomonas aeruginosa (strain ATCC 15692 / DSM 22644 / CIP 104116 / JCM 14847 / LMG 12228 / 1C / PRS 101 / PAO1), UniProt A0A0F7KYQ8); assay: biochemical; conditions: CCF2-FA substrate, 30 pM enzyme, 2 hours at 25° C.
Summary of the method: as §1

[1] = test system: Escherichia coli expressing NDM-1 (CLB30005, CLB30016); type: cell-based; conditions: with imipenem 1 μg/ml; 95% inhibition of bacterial growth
Summary of the method: (§2)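 Growth by absorbance after 22–24 h at 35°C defined the read-out, with imipenem fixed at 1 μg/ml alongside compound. Inocula came from overnight blood-agar colonies at 35°C, resuspended in saline and diluted 1:100 in 1.1×CAMHB.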

[2] = test system: Klebsiella pneumoniae expressing VIM-1 (IHMA599644); type: cell-based; conditions: with imipenem 1 μg/ml; 95% inhibition of bacterial growth
Summary of the method: as §2

[3] = test system: Serratia marcescens expressing IMP-1 (CL5741); type: cell-based; conditions: with imipenem 1 μg/ml; 95% inhibition of bacterial growth
Summary of the method: as §2

[4] = test system: Pseudomonas aeruginosa efflux+ (MB9798), IMP-1; type: cell-based; conditions: concentration restoring susceptibility to imipenem at 2 μg/mL in the presence of a class A, C, D serine β-lactamase inhibitor closely related to relebactam
Summary of the method: (§3)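 P. aeruginosa PAO1-derived IMP-1 strains, efflux+ MB9798 and efflux− MB9799, tested by standard microbroth MIC with imipenem and/or ceftazidime fixed, usually at CLSI breakpoint, plus fixed class A/C β-lactamase inhibitor against AmpC. Inhibitor titrated; concentration restoring susceptibility recorded; MB9798/MB9799 fold difference indicates efflux.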

[5] = test system: Pseudomonas aeruginosa efflux− (MB9799), IMP-1; type: cell-based; conditions: concentration restoring susceptibility to imipenem at 2 μg/mL in the presence of a class A, C, D serine β-lactamase inhibitor closely related to relebactam
Summary of the method: as §3

[6] = test system: Pseudomonas aeruginosa MB9798 vs MB9799; conditions: ratio MITC95 PA_9798/MITC95 PA_9799
Summary of the method: as §3

[7] = fluorescence assay, read-out: VIM-1 IC50

IMP-1, sequence (P52699 whole entry, looked up, species assumed): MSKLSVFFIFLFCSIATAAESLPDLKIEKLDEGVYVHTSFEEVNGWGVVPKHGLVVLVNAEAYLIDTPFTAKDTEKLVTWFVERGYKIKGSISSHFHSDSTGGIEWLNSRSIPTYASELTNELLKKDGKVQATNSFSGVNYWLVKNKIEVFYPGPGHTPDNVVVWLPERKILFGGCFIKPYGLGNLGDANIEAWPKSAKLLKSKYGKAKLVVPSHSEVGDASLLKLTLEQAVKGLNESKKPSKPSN

Nc1nc2c(-c3ccc(S(=O)(=O)N[C@H]4CNC[C@@H]4O)c(S(N)(=O)=O)c3-c3nnn[nH]3)cccc2[nH]1 [Example 169, 4-(2-amino-1H-benzo[d]imidazol-4-yl)-N^1-((3S,4S)-4-hydroxypyrrolidin-3-yl)-3-(1H-tetrazol-5-yl)benzene-1,2-disulfonamide]
IC50 (IMP-1): 2.08 nM
IC50 (NDM-1): 0.137 nM
IC50 (VIM-1; VIM-1 IC50, fluorescence assay): 0.581 nM
Escherichia coli expressing NDM-1 (CLB30016) MITC95 [1]: 0.7813 µM
Klebsiella pneumoniae expressing VIM-1 (IHMA599644) MITC95 [2]: 3.125 µM
Serratia marcescens expressing IMP-1 (CL5741) MITC95 [3]: 1.563 µM
P. aeruginosa expressing IMP-1, efflux + (MB9798) MITC95 [4]: 1.563 µM
P. aeruginosa expressing IMP-1, efflux − (MB9799) MITC95 [5]: 1.563 µM
Efflux ratio [6]: 1.00

Nc1nc2c(-c3ccc(S(=O)(=O)N[C@@H]4CNC[C@@H]4O)c(S(N)(=O)=O)c3-c3nnn[nH]3)cccc2[nH]1 [Example 170, 4-(2-amino-1H-benzo[d]imidazol-4-yl)-N^1-((3R,4S)-4-hydroxypyrrolidin-3-yl)-3-(1H-tetrazol-5-yl)benzene-1,2-disulfonamide]
IC50 (IMP-1): 1.12 nM
IC50 (NDM-1): 0.0803 nM
IC50 (VIM-1; VIM-1 IC50, fluorescence assay): 0.257 nM
Escherichia coli expressing NDM-1 (CLB30016) MITC95 [1]: 0.7813 µM
Klebsiella pneumoniae expressing VIM-1 (IHMA599644) MITC95 [2]: 1.563 µM
Serratia marcescens expressing IMP-1 (CL5741) MITC95 [3]: 0.7813 µM
P. aeruginosa expressing IMP-1, efflux + (MB9798) MITC95 [4]: 0.7813 µM
P. aeruginosa expressing IMP-1, efflux − (MB9799) MITC95 [5]: 0.7813 µM
Efflux ratio [6]: 1.00

Nc1nc2c(-c3ccc(S(=O)(=O)N[C@@H]4CNC[C@H]4O)c(S(N)(=O)=O)c3-c3nnn[nH]3)cccc2[nH]1 [Example 171, 4-(2-amino-1H-benzo[d]imidazol-4-yl)-N^1-((3R,4R)-4-hydroxypyrrolidin-3-yl)-3-(1H-tetrazol-5-yl)benzene-1,2-disulfonamide]
IC50 (IMP-1): 1.39 nM
IC50 (NDM-1): 0.125 nM
IC50 (VIM-1; VIM-1 IC50, fluorescence assay): 0.506 nM
Escherichia coli expressing NDM-1 (CLB30016) MITC95 [1]: 0.7813 µM
Klebsiella pneumoniae expressing VIM-1 (IHMA599644) MITC95 [2]: 3.125 µM
Serratia marcescens expressing IMP-1 (CL5741) MITC95 [3]: 1.563 µM
P. aeruginosa expressing IMP-1, efflux + (MB9798) MITC95 [4]: 0.7813 µM
P. aeruginosa expressing IMP-1, efflux − (MB9799) MITC95 [5]: 1.563 µM
Efflux ratio [6]: 0.50

Nc1nc2c(-c3ccc(S(=O)(=O)N[C@H]4CN[C@H](CO)C4)c(S(N)(=O)=O)c3-c3nnn[nH]3)cccc2[nH]1 [Example 172, 4-(2-amino-1H-benzo[d]imidazol-4-yl)-N^1-((3R,5S)-5-(hydroxymethyl)pyrrolidin-3-yl)-3-(1H-tetrazol-5-yl)benzene-1,2-disulfonamide]
IC50 (IMP-1): 0.509 nM
IC50 (NDM-1): 0.05 nM
IC50 (VIM-1; VIM-1 IC50, fluorescence assay): 0.159 nM
Escherichia coli expressing NDM-1 (CLB30016) MITC95 [1]: 0.5859 µM
Klebsiella pneumoniae expressing VIM-1 (IHMA599644) MITC95 [2]: 1.563 µM
Serratia marcescens expressing IMP-1 (CL5741) MITC95 [3]: 0.7813 µM
P. aeruginosa expressing IMP-1, efflux + (MB9798) MITC95 [4]: 0.3906 µM
P. aeruginosa expressing IMP-1, efflux − (MB9799) MITC95 [5]: 0.7813 µM
Efflux ratio [6]: 0.50

Nc1nc2c(-c3ccc(S(=O)(=O)N[C@H]4CN[C@@H](CO)C4)c(S(N)(=O)=O)c3-c3nnn[nH]3)cccc2[nH]1 [Example 173, 4-(2-amino-1H-benzo[d]imidazol-4-yl)-N^1-((3R,5R)-5-(hydroxymethyl)pyrrolidin-3-yl)-3-(1H-tetrazol-5-yl)benzene-1,2-disulfonamide]
IC50 (IMP-1): 0.933 nM
IC50 (NDM-1): 0.0948 nM
IC50 (VIM-1; VIM-1 IC50, fluorescence assay): 0.284 nM
Escherichia coli expressing NDM-1 (CLB30016) MITC95 [1]: 0.7813 µM
Klebsiella pneumoniae expressing VIM-1 (IHMA599644) MITC95 [2]: 3.125 µM
Serratia marcescens expressing IMP-1 (CL5741) MITC95 [3]: 0.7813 µM
P. aeruginosa expressing IMP-1, efflux + (MB9798) MITC95 [4]: 1.563 µM
P. aeruginosa expressing IMP-1, efflux − (MB9799) MITC95 [5]: 1.563 µM
Efflux ratio [6]: 1.00

Nc1nc2c(-c3ccc(S(=O)(=O)N[C@@H]4CN[C@@H](CO)C4)c(S(N)(=O)=O)c3-c3nnn[nH]3)cccc2[nH]1 [Example 174, 4-(2-amino-1H-benzo[d]imidazol-4-yl)-N^1-((3S,5R)-5-(hydroxymethyl)pyrrolidin-3-yl)-3-(1H-tetrazol-5-yl)benzene-1,2-disulfonamide]
IC50 (IMP-1): 1.66 nM
IC50 (NDM-1): 0.117 nM
IC50 (VIM-1; VIM-1 IC50, fluorescence assay): 0.39 nM
Escherichia coli expressing NDM-1 (CLB30016) MITC95 [1]: 3.125 µM
Klebsiella pneumoniae expressing VIM-1 (IHMA599644) MITC95 [2]: 3.125 µM
Serratia marcescens expressing IMP-1 (CL5741) MITC95 [3]: 1.563 µM
P. aeruginosa expressing IMP-1, efflux + (MB9798) MITC95 [4]: 1.563 µM
P. aeruginosa expressing IMP-1, efflux − (MB9799) MITC95 [5]: 1.563 µM
Efflux ratio [6]: 1.00

Nc1nc2c(-c3ccc(S(=O)(=O)N[C@@H]4CN[C@H](CO)C4)c(S(N)(=O)=O)c3-c3nnn[nH]3)cccc2[nH]1 [Example 175, 4-(2-amino-1H-benzo[d]imidazol-4-yl)-N^1-((3S,5S)-5-(hydroxymethyl)pyrrolidin-3-yl)-3-(1H-tetrazol-5-yl)benzene-1,2-disulfonamide]
IC50 (IMP-1): 1 nM
IC50 (NDM-1): 0.127 nM
IC50 (VIM-1; VIM-1 IC50, fluorescence assay): 0.334 nM
Escherichia coli expressing NDM-1 (CLB30016) MITC95 [1]: 0.7813 µM
Klebsiella pneumoniae expressing VIM-1 (IHMA599644) MITC95 [2]: 3.125 µM
Serratia marcescens expressing IMP-1 (CL5741) MITC95 [3]: 1.563 µM
P. aeruginosa expressing IMP-1, efflux + (MB9798) MITC95 [4]: 0.7813 µM
P. aeruginosa expressing IMP-1, efflux − (MB9799) MITC95 [5]: 1.563 µM
Efflux ratio [6]: 0.50

Nc1nc2c(-c3ccc(S(=O)(=O)N[C@@]4(CO)CCNC4)c(S(N)(=O)=O)c3-c3nnn[nH]3)cccc2[nH]1 [Example 176, (S)-4-(2-amino-1H-benzo[d]imidazol-4-yl)-N1-(3-(hydroxymethyl)pyrrolidin-3-yl)-3-(1H-tetrazol-5-yl)benzene-1,2-disulfonamide]
IC50 (IMP-1): 0.728 nM
IC50 (NDM-1): 0.0524 nM
IC50 (VIM-1; [7]): 0.192 nM
Escherichia coli expressing NDM-1 (CLB30016) MITC95 [1]: 0.3906 µM
Klebsiella pneumoniae expressing VIM-1 (IHMA599644) MITC95 [2]: 1.563 µM
Serratia marcescens expressing IMP-1 (CL5741) MITC95 [3]: 0.7813 µM
P. aeruginosa expressing IMP-1, efflux + (MB9798) MITC95 [4]: 0.7813 µM
P. aeruginosa expressing IMP-1, efflux − (MB9799) MITC95 [5]: 0.7813 µM
Efflux ratio [6]: 1.00

Nc1nc2c(-c3ccc(S(=O)(=O)N[C@]4(CO)CCNC4)c(S(N)(=O)=O)c3-c3nnn[nH]3)cccc2[nH]1 [Example 177, (R)-4-(2-amino-1H-benzo[d]imidazol-4-yl)-N1-(3-(hydroxymethyl)pyrrolidin-3-yl)-3-(1H-tetrazol-5-yl)benzene-1,2-disulfonamide]
IC50 (IMP-1): 0.862 nM
IC50 (NDM-1): 0.0669 nM
IC50 (VIM-1; [7]): 0.246 nM
Escherichia coli expressing NDM-1 (CLB30016) MITC95 [1]: 0.7813 µM
Klebsiella pneumoniae expressing VIM-1 (IHMA599644) MITC95 [2]: 1.563 µM
Serratia marcescens expressing IMP-1 (CL5741) MITC95 [3]: 1.563 µM
P. aeruginosa expressing IMP-1, efflux + (MB9798) MITC95 [4]: 0.7813 µM
P. aeruginosa expressing IMP-1, efflux − (MB9799) MITC95 [5]: 1.563 µM
Efflux ratio [6]: 0.50

Nc1nc2c(-c3ccc(S(=O)(=O)N[C@@H]4CCCNC4)c(S(N)(=O)=O)c3-c3nnn[nH]3)cccc2[nH]1 [Example 178, (R)-4-(2-amino-1H-benzo[d]imidazol-4-yl)-N^1-(piperidin-3-yl)-3-(1H-tetrazol-5-yl)benzene-1,2-disulfonamide]
IC50 (IMP-1): 0.87 nM
IC50 (NDM-1): 0.064 nM
IC50 (VIM-1; [7]): 0.266 nM
Escherichia coli expressing NDM-1 (CLB30016) MITC95 [1]: 1.563 µM
Klebsiella pneumoniae expressing VIM-1 (IHMA599644) MITC95 [2]: 3.125 µM
Serratia marcescens expressing IMP-1 (CL5741) MITC95 [3]: 1.563 µM
P. aeruginosa expressing IMP-1, efflux + (MB9798) MITC95 [4]: 1.563 µM
P. aeruginosa expressing IMP-1, efflux − (MB9799) MITC95 [5]: 1.563 µM
Efflux ratio [6]: 1.00

Nc1nc2c(-c3ccc(S(=O)(=O)N[C@H]4CCCNC4)c(S(N)(=O)=O)c3-c3nnn[nH]3)cccc2[nH]1 [Example 179, (S)-4-(2-amino-1H-benzo[d]imidazol-4-yl)-N^1-(piperidin-3-yl)-3-(1H-tetrazol-5-yl)benzene-1,2-disulfonamide]
IC50 (IMP-1): 3 nM
IC50 (NDM-1): 0.219 nM
IC50 (VIM-1; [7]): 0.904 nM
Escherichia coli expressing NDM-1 (CLB30016) MITC95 [1]: 1.563 µM
Klebsiella pneumoniae expressing VIM-1 (IHMA599644) MITC95 [2]: 3.125 µM
Serratia marcescens expressing IMP-1 (CL5741) MITC95 [3]: 3.125 µM
P. aeruginosa expressing IMP-1, efflux + (MB9798) MITC95 [4]: 3.125 µM
P. aeruginosa expressing IMP-1, efflux − (MB9799) MITC95 [5]: 1.563 µM
Efflux ratio [6]: 2.00

NCCNS(=O)(=O)c1ccc(-c2cc(F)cc3[nH]c(N)nc23)c(-c2nnn[nH]2)c1S(N)(=O)=O [Example 180, 4-(2-amino-6-fluoro-1H-benzo[d]imidazol-4-yl)-N^1-(2-aminoethyl)-3-(1H-tetrazol-5-yl)benzene-1,2-disulfonamide]
IC50 (IMP-1): 0.387 nM
IC50 (NDM-1): 0.0472 nM
IC50 (VIM-1; [7]): 0.161 nM
Escherichia coli expressing NDM-1 (CLB30016) MITC95 [1]: 0.3906 µM
Klebsiella pneumoniae expressing VIM-1 (IHMA599644) MITC95 [2]: 1.563 µM
Serratia marcescens expressing IMP-1 (CL5741) MITC95 [3]: 0.7813 µM
P. aeruginosa expressing IMP-1, efflux + (MB9798) MITC95 [4]: 0.3906 µM
P. aeruginosa expressing IMP-1, efflux − (MB9799) MITC95 [5]: 0.7813 µM
Efflux ratio [6]: 0.50
